Measured values reported in PMC8819907 (Journal of Experimental & Clinical Cancer Research : CR, 2022).
Where two headings read alike, the source gives them in different places.

Experiments:
[1] = tested on: advanced solid tumors; assay: Tumor response (RECIST 1.1) and PFS (Kaplan Meier); format: in vivo, human;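 note: patients were grouped by hepatic function into four groups, and PFS differences among these groups were tested with a log rank test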
[2] = tested on: MEK1; set-up: method as in ref 17 (a number printed in a supplementary file, which may have a reference list of its own: not looked up in the article's list); conditions: read-out: IC50 against MEK1; cited from earlier work
[3] = tested on: RAF-mediated MEK1 activation; set-up: method as in ref 19 (a number printed in a supplementary file, which may have a reference list of its own: not looked up in the article's list); conditions: read-out: IC50, inhibition of RAF-mediated MEK1 activation; cited from earlier work
[4] = target: pMEK1 kinase activity; set-up: method as in ref 19 (a number printed in a supplementary file, which may have a reference list of its own: not looked up in the article's list); conditions: cited from earlier work
[5] = tested on: BRAF-mutant Colo205, A375P F11s, and HT-29 human tumor xenograft; conditions: 0.3 mg/kg; cited from earlier work
[6] = tested on: PC3, BxPC3, and BT474 xenograft lines; conditions: no tumor regressions; cited from earlier work
[7] = set-up: method as in ref 17 (a number printed in a supplementary file, which may have a reference list of its own: not looked up in the article's list); conditions: cited from earlier work
[8] = tested on: pERK, Ki67, and p27; set-up: method as in ref 19 (a number printed in a supplementary file, which may have a reference list of its own: not looked up in the article's list); conditions: 2 mg QD, cited from earlier work
[9] = tested on: melanoma, pancreatic cancer, CRC; conditions: cited from earlier work
[10] = tested on: unresectable stage IIIC or IV cutaneous melanoma with BRAF V600E or V600K mutation; conditions: cited from earlier work
[11] = tested on: BRAF V600E or V600K mutation-positive melanoma; conditions: 40 patients with prior BRAF inhibitor; 2 mg PO QD; cited from earlier work
[12] = tested on: acute myeloid leukemia or myelodysplastic syndrome; conditions: cited from earlier work
[13] = tested on: untreated pancreatic cancer; set-up: method as in ref 25 (a number printed in a supplementary file, which may have a reference list of its own: not looked up in the article's list); conditions: gemcitabine plus trametinib 2 mg QD; cited from earlier work
[14] = 25° C; cited from earlier work
[15] = tested on: CYP 2B6 and 3A4; conditions: cited from earlier work
[16] = tested on: patients with advanced melanoma; conditions: cited from earlier work
[17] = tested on: patients in clinical trials of trametinib; conditions: cited from earlier work
[18] = tested on: rabbits; conditions: rabbit, in vivo; cited from earlier work
[19] = 13 patients with KRAS or NRAS mutations
[20] = 2 mg monotherapy, 96 total patients

CC(=O)Nc1cccc(-n2c(=O)n(C3CC3)c(=O)c3c(Nc4ccc(I)cc4F)n(C)c(=O)c(C)c32)c1 [Trametinib, equimolecular combination of acetamide, N-[3-[3-cyclopropyl-5-[(2-fluoro-4-iodophenyl)amino]-3,4,6,7-tetrahydro6,8-dimethyl-2,4,7-trioxopyrido[4,3-d]pyrimidin-1(2H)-yl]phenyl] with 1,1’-sulfinylbis[methane]]
duration of SD (range) ([1]; Mild): 3.0-6.6 months
median duration of SD ([1]; Mild): 4.8 months
Best Response: Partial Response ([1]; Mild DL1 2 mg): 0 (0) n (%)
Best Response: Progressive Disease ([1]; Mild DL1 2 mg): 4 (66.7) n (%)
Best Response: Stable Disease ([1]; Mild DL1 2 mg): 2 (33.3) n (%)
Best Response: Stable Disease ([1]; Mild DL1 2 mg, listed as trametinib): 2 (33.3%) n (%)
median PFS ([1]; Mild group): 1.74 months
duration of SD (range) ([1]; Mod (1.5 mg)): 3.0-3.5 months
median duration of SD ([1]; Mod (1.5 mg)): 3.5 months
duration of SD (range) ([1]; Mod (2 mg)): 2.3-2.4 months
median duration of SD ([1]; Mod (2 mg)): 2.4 months
Best Response: Partial Response ([1]; Mod DL1 1.5 mg): 0 (0) n (%)
Best Response: Progressive Disease ([1]; Mod DL1 1.5 mg): 1 (25.0) n (%)
Best Response: Stable Disease ([1]; Mod DL1 1.5 mg): 3 (75.0) n (%)
Best Response: Stable Disease ([1]; Mod DL1 1.5 mg, listed as trametinib): 3 (75%) n (%)
Best Response: Partial Response ([1]; Mod DL+1 2 mg): 0 (0) n (%)
Best Response: Progressive Disease ([1]; Mod DL+1 2 mg): 1 (33.3) n (%)
Best Response: Stable Disease ([1]; Mod DL+1 2 mg): 2 (66.7) n (%)
Best Response: Stable Disease ([1]; Mod DL+1 2 mg, listed as trametinib): 2 (66%) n (%)
median PFS ([1]; Mod group): 3.45 months
duration of SD (range) ([1]; Norm): 1.9-12.5 months
median duration of SD ([1]; Norm): 3.8 months
Best Response: Partial Response ([1]; Norm 2 mg): 2 (15.4) n (%)
Best Response: Progressive Disease ([1]; Norm 2 mg): 4 (30.8) n (%)
Best Response: Stable Disease ([1]; Norm 2 mg): 7 (53.8) n (%)
Best Response: Stable Disease ([1]; Norm 2 mg, listed as trametinib): 7 (53.8%) n (%)
median PFS ([1]; Norm group): 3.62 months
duration of SD (range) ([1]; Sev (1 mg)): 2.7-4.6 months
median duration of SD ([1]; Sev (1 mg)): 3.4 months
Best Response: Partial Response ([1]; Sev DL1 1 mg): 0 (0) n (%)
Best Response: Progressive Disease ([1]; Sev DL1 1 mg): 1 (25.0) n (%)
Best Response: Stable Disease ([1]; Sev DL1 1 mg): 3 (75.0) n (%)
Best Response: Stable Disease ([1]; Sev DL1 1 mg, listed as trametinib): 3 (75%) n (%)
Best Response: Partial Response ([1]; Sev DL+1 1.5 mg): 0 (0) n (%)
Best Response: Progressive Disease ([1]; Sev DL+1 1.5 mg): 1 (100%) n (%)
Best Response: Stable Disease ([1]; Sev DL+1 1.5 mg): 0 (0) n (%)
Best Response: Stable Disease ([1]; Sev DL+1 1.5 mg, listed as trametinib): 0 (0%) n (%)
median PFS ([1]; Sev group): 2.11 months
Best Response: Partial Response ([1]; Total): 2
Best Response: Progressive Disease ([1]; Total): 12
Best Response: Stable Disease ([1]; Total): 17
IC50 [2]: 0.7 nM
IC50 [3]: 0.6 nM
IC50 [4]: 13 nM
tumor regression in the Colo205 model [5]: tumor regression was observed
TGI [6]: 44-46%
Cmax ([7]; Day 7, 3 mg/kg, read-out: average Cmax in blood): 1410 nM
estimated half-life (t1/2) ([7]; mice): 33 h
median inhibition of pERK ([8]; BRAF or NRAS mutation-positive metastatic melanoma): 62%
median increase in p27 [8]: 175%
median inhibition of Ki67 [8]: 83%
partial response (PR) ([9]; 9 patients with BRAF wt melanoma): 2 patients
overall objective response rate (ORR) ([9]; 14 patients with BRAF-mutant melanoma, 2 mg QD): 43%
complete responses (CRs) ([9]; 14 patients with BRAF-mutant melanoma): 2
PRs ([9]; 26 evaluable pancreatic cancer patients): 2
objective responses ([9]; 28 patients with colorectal cancer): no objective responses
CR, n (%) [10]: 4 (2%) n (%)
Duration of response Median, months (95% CI) [10]: 5.5 (4.1, 5.9) months
Objective Response Rate (95% CI) [10]: 22%
PR, n (%) [10]: 43 (20%) n (%)
6-month OS rate ([10]; in vivo): 81%
PFS Median, months (95% CI) ([10]; investigator-assessed): 4.8 (4.3, 4.9) months
PFS HR (95% CI) ([10]; trametinib vs chemotherapy, P<0.0001): 0.47 (0.34, 0.65)
confirmed PR or CR [11]: None of the patients
best response CRs [12, 19]: 3
best response PD [12, 19]: 1
best response SD [12, 19]: 7
PRs ([12]; 26 patients with wild-type RAS or unknown mutation): 2
patients withdrew due to an AE ([12]; AML or MDS, 1-2 mg QD): 23%
Median OS [13]: 8.4 months
ORR [13]: 22%
median PFS [13]: 16 weeks
median duration of responses [13]: 23.9 weeks
Approximate Solubility in water [14]: < 100 ng/mL
CYP 2B6 and 3A4 inducer [15]: weak
Cardiomyopathy resolved ([16]; 10 of 14 patients): 71%
Pruritis ([16]; All Grades): 10%
Stomatitis ([16]; All Grades): 15%
Pruritis ([16]; Grades 3 and 4): 2%
Stomatitis ([16]; Grades 3 and 4): 2%
Dose reduction required for skin toxicities ([16]; in vivo): 12%
Severe skin toxicity ([16]; in vivo): 12%
overall incidence of skin toxicity ([16]; in vivo): 87%
permanent discontinuation for skin toxicities ([16]; in vivo): 1%
median time to onset of skin toxicity ([16]; range: 1 to 221 days): 15 days
median time to resolution of skin toxicity ([16]; range: 1 to 282 days): 48 days
grade 4 rash AE ([17]; 2 mg monotherapy, five studies): four patients
LFT changes grade 3 events [17, 20]: 26
LFT changes grade 4 events [17, 20]: 6 patients
grade 1 or 2 pneumonitis ([17]; 2 mg monotherapy): three subjects
grade 3 diarrhea ([17]; 2 mg monotherapy): 17 patients
grade 3 pneumonitis ([17]; 2 mg monotherapy): six
grade 3 visual disorders ([17]; 2 mg monotherapy): six patients
grade 4 diarrhea ([17]; 2 mg monotherapy): none
grade 4 visual disorder ([17]; 2 mg monotherapy): one patient
cases of RPED ([17]; entire trametinib program as of 23 June 2013, monotherapy or combination): 14 cases
cases of RPED ([17]; integrated safety population, 2 mg once daily, five studies): five cases
Embryofetal toxicity [18]: embryotoxic and abortifacient
